We go through one molecule from PMC12654037, “Norditerpene Natural Products from Subterranean Fungi with Anti-Parasitic Activity” (Microorganisms, 2025).

As a reminder, the EC50 is the midpoint of the concentration-response curve. The term half-life denotes the time in which the quantity being followed falls by half. A higher half-life goes with slow decline.

“Also recorded” adds a separate entry of the source.

For one data set, the system named is T. gondii. Kind of data set: T. gondii growth inhibition assay (TgRH-Luc:GFP-infected HFF cells). The data set is classed as cell-based. The settings on record: Toxoplasma gondii, 10 µM to 156 nM, Figure 2E. The procedure: T. gondii growth inhibition assays: The T. gondii inhibition assay was described previously. Briefly, HFF cells were seeded onto white-sided, clear-bottom 96 well plates, grown to confluence, and then 5000 TgRH-Luc:GFP parasites were added to each well. At 24 hpi, compounds or DMSO were added. The growth of the parasites was determined by relative luminescence at 48 hpi using Promega Bright-Glo (Promega, Madison, WI, USA) substrate. Plates were read, and the percent inhibition of parasite growth was calculated as described above. Determination of -static versus -cidal activity was conducted as indicated above, with parasite growth quantified after 48 h of infection. Each sample was run in triplicate, and each experiment was repeated three times.

A further data set is described as follows: HCT-8 cytotoxicity assay. The data set is classed as cell-based. Conditions: human; sub-confluent (~40% confluency); read-out: EC50 cytotoxicity against sub-confluent HCT-8 cells. The method, then:
(§1) HCT-8 and HFF cytotoxicity assays: Cytotoxicity of the compounds was determined against both confluent (the conditions of the infection assays) and growing HCT-8 and HFF host cells, as previously described. Cells were seeded into white-sided, clear-bottom 96-well plates and grown to either 40% or 100% confluency. Compounds were added to cells at various concentrations up to 100 µM in a final DMSO concentration of 0.5%. DMSO was run in parallel as a vehicle control. After 48 h, the viability of the cells was determined by either quantification of cellular ATP (Cell-Titer Glo cell viability assay; Promega, Madison WI, USA) or by MTT assay. Viability was determined 24 h after compound addition to HFF cells or 48 h after compound addition to HCT-8 cells or HepG2 cells. The percent cell growth was then calculated with the following formula: % Cell Growth = [RLUcompound/RLUDMSO] × 100. Samples were run in triplicate with two to three biological replicates.

In another data set the test system is HCT-8 cells. Kind of data set: HCT-8 cytotoxicity assay. In kind it is cell-based. The procedure:
as §1

A short description of data set [1]: Microsomal stability assay, human. Conditions: microsomes, pH 7.4. The procedure: Microsomal stability assay. The in vitro microsomal stability assay was conducted in duplicate in commercially available mouse or human liver microsomes (Sekisui XenoTech, Kansas City, KS, USA), which were supplemented with nicotinamide adenine dinucleotide phosphate (NADPH) as a cofactor. […] The reaction was initiated by the addition of 1 mmol/L NADPH, followed by incubation at 37 °C. A negative control was performed in parallel without NADPH to reveal any chemical instability or non-NADPH dependent enzymatic degradation for each compound. […] At various time points (0, 5, 15, 30, and 60 min), a 40 µL of reaction aliquot was taken and quenched with 120 µL of acetonitrile containing 0.1% formic acid. The samples were then vortexed and centrifuged at 15,000 rpm for 5 min at 4 °C. The supernatants were collected and analyzed by LC-MS/MS to determine the in vitro metabolic half-life (t1/2).

Data set [2] can be described thus: PAMPA membrane permeability assay. In kind it is in vitro ADME. The method, then:
PAMPA membrane permeability assay. The membrane permeability of selected compounds was evaluated using the Corning® BioCoat^TM Pre-coated PAMPA Plate System (catalog. No. 353015, Corning, Glendale, AZ, USA). The pre-coated plate assembly, which was stored at −20 °C, was thawed for 30 min at room temperature. The permeability assay was carried out in accordance with the manufacturer’s protocol. Briefly, the 96-well filter plate, pre-coated with lipids, was used as the permeation acceptor and a matching 96-well receiver plate was used as the permeation donor. […] At the end of the incubation, the plate was separated, and the final concentrations of compounds in both donor wells and acceptor wells were analyzed using LC-MS/MS. Permeability of the compounds was calculated using Equation (1): Pe = {−ln [1 − CA(t)/Ceq]}/[A × (1/VD + 1/VA) × t](1) where A = filter area (0.3 cm^2), VD = donor well volume (0.3 mL), VA = acceptor well volume (0.2 mL), t = incubation time (seconds), CA(t) = compound concentration in acceptor well at time t, and CD(t) = compound concentration in donor well at time t. Ceq was calculated using Equation (2): Ceq = [CD(t) × VD + CA(t) × VA]/(VD + VA)(2) […]

The subject of the next data set is C. parvum sporozoites. Kind of data set: C. parvum invasion inhibition assay. In kind it is cell-based, Cryptosporidium parvum. Conditions: 7.5 µM, 3 h infection, luciferase and IFA formats. The method, then:
C. parvum excystation and invasion assays: Oocyst excystation rates in the presence of compounds were determined as previously described. The C. parvum invasion inhibition assays were conducted in two formats. In the first format, described previously, HCT-8 cells were seeded on glass slides (CELLTREAT Scientific Product, Pepperell, MA, USA) and allowed to grow to confluence. Oidiolactone A was added to the cells for one hour. TrtE and DMSO were run in parallel as positive and negative controls, respectively. The cell monolayers were then infected with 1.2 × 10^6 wild-type C. parvum oocysts. After 3 h of incubation at 37 °C, the slides were washed five times with 111 mM D-galactose, fixed with 4% paraformaldehyde, and permeabilized with 0.25% Triton-X. C. parvum sporozoites were detected with rabbit anti-gp40 [39] and Alexa Fluor 594 goat anti-rabbit antibodies. The HCT-8 cell nuclei were stained with 0.09 mM Hoechst. Slides were coded to enable unbiased counting, and sporozoites from at least 10 randomly selected fields were counted in each sample at 100× magnification (Zeiss® Axioscope 5). The percentage of invaded parasites was determined using the following equation: % Invaded parasites = [parasitescompound/parasitesDMSO] × 100. This experiment was run in duplicate with two biological replicates. […]

A further data set deals with P. falciparum line Dd2. Kind of data set: Plasmodium falciparum growth inhibition assay (SYBR Green I), Dd2.

Experimental for P. falciparum line Dd2: Plasmodium falciparum growth inhibition assay: Antiplasmodial EC50 results were determined using a fluorescence-based SYBR Green I assay performed using asynchronous cultures [30, 35]. […] Plates were subsequently frozen at −80 °C to facilitate lysis. […] Relative fluorescence units (RFUs) were normalized based on chloroquine-treated and no treatment controls. Serial dilutions of compounds were prepared in RPMI with final assay conditions of ≤0.2% DMSO. Each assay was conducted in triplicate with three biological replicates.

`CO[C@H]1OC(=O)C=C2[C@@]13O[C@@H]3[C@H]1OC(=O)[C@@]3(C)CCC[C@@]2(C)[C@@H]13` [compound 1, oidiolactone A]: the EC50 in the data set with T. gondii is 1.63 µM; in the data set with P. falciparum line Dd2 (Plasmodium falciparum, DD2, 72 h, read-out: EC50 Dd2 (M)), 2.26e-06 ± 4.6e-07 M. Moreover, the EC50 at 48 h in “HCT-8 cytotoxicity assay” came out at 29.7 µM. The “TC50 HCT-8 (confluent)” value in the data set on HCT-8 cells (confluent) is recorded as above 30 µM. In the data set with HCT-8 cells (confluent HCT-8, conditions of the infection assay, 48 h, cellular ATP), the “toxicity to host cells (no toxicity up to)” value is reported as above 100 µM. Further, in the data set on HCT-8 cells (sub-confluent), the “TC50 HCT-8 (sub-confluent)” value was found to be 29.7 ± 1.8 µM. In data set [1], this molecule returned a half-life at 1 µmol/L of 5.29 ± 0.278 h. Besides, the Papp at 5 h, 100 μmol/L in data set [2] (PAMPA, 25 °C, 5 h, 100 μmol/L, read-out: PAMPA Pe) was determined as 11 ± 1.3 ×10⁻⁶ cm/s. Besides, the PAMPA permeability class entry in data set [2] (cutoff Pe 1.5 × 10^−6 cm/s) is recorded as “high passive permeability”. Further, the “effect on parasite invasion” value with C. parvum sporozoites was “no effect; also recorded: did not exhibit any effect”. For the same molecule, the “SI: selectivity index=EC50 HepG2/ EC50 compound” value in the data set with P. falciparum line Dd2 is listed as above 11.
